This note sets out measurements from patent US6797726B1, “N-alkoxyalkyl-N,N-dialkylamine derivatives or salts thereof, and remedies for nerve degeneration diseases containing the same” (Toyama Chemical Co., Ltd., priority 1999, dated 2004).

Structures can show the parent of a compound that is named as a salt.

The first data set deals with ddY male mice. Kind of data set: Anti-hypoxic activity. In kind it is in vivo. The conditions noted are these: 100 mg/kg orally, 30 minutes after administration, gas 4% oxygen / 96% nitrogen at 5 L/minute. The procedure:
A test compound (100 mg/kg) dissolved in distilled water is orally administered to ddY male mice of 5-6 weeks age (6-10 heads per group). Thirty minutes after the administration, each mouse was introduced into a glass vessel, and a gas mixture consisting of 4% of oxygen and 96% of nitrogen was passed through the glass vessel at a rate of 5 L/minute. The period of the time from the beginning of sending the gas to the death of the animal was measured.
To the control group, only distilled water was orally given. Anti-hypoxic activity of test compound was calculated according to the following equation:
(Survival time of mouse in administered group)÷(Survival time of mouse in control group)×100(%)
For `C#CCN(C)CCOCCc1ccc2sccc2c1.Cl` [Example 70, N-[2-(2-benzo[b]thiophen-5-ylethoxy)ethyl]-N-methyl-N-(2-pripynyl)amine hydrochloride], the “Anti-hypoxic activity: (survival time of mouse in administered group)÷(survival time of mouse in control group)×100” value stood at 213%.

The same data set, now with this note: Mus musculus, po, 0.5 h, 100 mg/kg orally, 30 minutes after administration, gas 4% oxygen / 96% nitrogen at 5 L/minute, read-out: Anti-hypoxic activity: (survival time of mouse in administered group)÷(survival time of mouse in control group)×100.
Take `CN(CCO)CCCOCCc1ccc2sccc2c1.O=C(O)C(=O)O` [Example 76, 2-{[3-(2-benzo[b]thiophen-5-ylethoxy)propyl]-(methyl)amino}-1-ethanol oxalate]: the response vs control in vivo at 100 mg/kg was found to be 194%.

`CCN(CC)CCOCCc1ccc2occc2c1` [Example 13, N-[2-(2-Benzo[b]furan-5-ylethoxy)ethyl]-N,N-diethylamine oxalate]: the response vs control in vivo at 100 mg/kg was 160%.

Regarding `CN(CCOCCc1ccc2sccc2c1)C1CC1` [Example 158, N-[2-(2-benzo[b]thiophen-5-ylethoxy)ethyl]-N-cyclopropyl-N-methylamine hydrochloride], the response vs control in vivo at 100 mg/kg is 179%.

On to `CC(O)CN(C)CCOCCc1ccc2sccc2c1` (centres unmarked) [Example 144, 1-{[2-(2-Benzo[b]thiophen-5-ylethoxy)ethyl]-(methyl)amino}-2-propanol oxalate], for which the response vs control in vivo at 100 mg/kg came out at 250%.

For the molecule `COc1cc2sccc2cc1CCOCCN(C)C` [Example 53, N,N-Dimethyl-N-{2-[2-(6-methoxybenzo[b]thiophen-5-yl)ethoxy]ethyl}-amine hydrochloride], the response vs control in vivo at 100 mg/kg came out at 200%.

As for `CCN(CC)CCOCCc1ccc2ccsc2c1` [Example 101, N-[2-(2-Benzo[b]thiophen-6-ylethoxy)ethyl]-N,N-diethylamine oxalate], the response vs control in vivo at 100 mg/kg stood at 187%.

As to `CCN(C)CCOCCc1ccc2sccc2c1` [Example 102, N-[2-(2-Benzo[b]thiophen-5-ylethoxy)ethyl]-N-ethyl-N-methylamine oxalate], the response vs control in vivo at 100 mg/kg was 210%.

For `CCN(CC)CCOCCc1cccc2ccccc12` [Example 49, N,N-diethyl-N-{2-[2-(1-naphthyl)ethoxy]ethyl}-amine oxalate], the response vs control in vivo at 100 mg/kg amounted to 173%.

Regarding `CCN(CC)CCOCCc1cc2ccsc2cc1F` [Example 31, N,N-diethyl-N-{2-[2-(6-fluorobenzo[b]thiophen-5-yl)ethoxy]ethyl}amine oxalate], the response vs control in vivo at 100 mg/kg was found to be 248%.

For the next data set, the system named is cultured nerve cells death induced by HNE. Kind of data set: Activity of inhibiting the HNE-induced nerve cell death (MTT assay). The conditions noted are these: 0.1 μM; HNE 25 μmol/L; cultured rat embryo cerebral cortex nerve cells; 24 hours. Format: cell-based, Wistar rat. The text has this: The protecting effect against the death of cultured nerve cells induced by HNE was examined by a modification of the method described in the Journal of Neuroscience, Vol. 17, Page 5089 (1997).
Cerebral cortex excised from the brain of an embryo of Wistar rat (embryonal age 17-19 days) was cut into small pieces and then treated with trypsin to dissociate the nerve cells. The cells were spread onto a 48-well tissue-culture plate at a rate of 5×10^5 cells per well, and cultured under a condition of 5% carbon dioxide, 37° C., in a Dulbecco modified Eagle medium to which 10% fetal calf serum and 3.6 mg/mL glucose were added.
In order to inhibit the proliferation of glia cells, cytosine arabinoside was added so as to give a final concentration of 10 μmol/L, from the day one after starting the culture. When the culture had been continued for 2 days, the medium was changed to a Dulbecco modified Eagle medium to which 10% fetal calf serum and 3.6 mg/mL glucose were added. When the culture had been continued for 7-8 days, a test agent was added, after which HNE was immediately added so as to give a final concentration of 25 μmol/L.
The inhibitory activity of an agent on the cultured nerve cell death was […] by using the inhibitory activity on the depression of MTT reducing ability as an index. That is, 24 hours after addition of a test agent, MTT assay [Journal of Immunological Methods, Vol. 65, Page 55 (1983)] developed by Mossmann was carried out, based on which inhibitory rate (%) of the agent on the decrease of MTT assay induced by HNE was calculated.
Inhibitory rate=[MTT assay value of (HNE+agent)−added group)−(MTT assay value of HNE−added group)]÷(MTT assay value of no addition group−MTT assay value of HNE−added group)]×100
Turning to `CN(CCO)CCCOCCc1ccc2sccc2c1.O=C(O)C(=O)O` [Example 76, 2-{[3-(2-benzo[b]thiophen-5-ylethoxy)propyl]-(methyl)amino}-1-ethanol oxalate], the “Inhibitory rate on the decrease of MTT assay induced by HNE” value is reported as 49%.

Consider `CCN(CC)CCOCCc1ccc2c(c1)CCC2.Cl` [Example 105, N-{2-[2-(2,3-Dihydro-1H-inden-5-yl)ethoxy]ethyl}-N,N-diethylamine hydrochloride], for which the “Inhibitory rate on the decrease of MTT assay induced by HNE” value was determined as 31%.

System in a further data set: not given
Experiment: not given
Conditions: not given
The melting point is the temperature of the solid-liquid transition. In turn, `Cc1cc2cc(CCOCCN(C)CCO)ccc2s1.O=C(O)C(=O)O` yielded a melting point of 73 to 75 °C.

In the case of `CCN(CC)CCOCCc1cc2ccsc2cc1OC.O=C(O)C(=O)O`, the melting point fell in the range of 80 to 83 °C.

With `CCCN(CCC)CCOCCc1ccc2sccc2c1.O=C(O)C(=O)O`, the melting point fell in the range of 93 to 98 °C.

As to `CN(C)CCOCCc1cc2ccsc2cc1Cl.Cl`, the melting point lay within 105 to 108 °C.

The molecule `CCN(CC)CCOCCc1ccc2ncccc2c1.O=C(O)C(=O)O` displayed a melting point of 90 to 92 °C.

`CN(C)CCOCCc1ccc(F)c2ccsc12.Cl` came in with a melting point of 67 to 69 °C.

`CN(C)CCOCCc1ccc2sccc2c1F.O=C(O)C(=O)O` displayed a melting point of 118 to 121 °C.

With `CC(C)N(CCOCCc1ccc2sccc2c1)C(C)C.Cl`, the melting point fell in the range of 78 to 79 °C.

`CN(CCO)CCOCCc1c(F)ccc2ccsc12.Cl` came in with a melting point of 69 to 72 °C.

The molecule `CCN(CC)CCCCCc1ccc2sccc2c1.O=C(O)C(=O)O` displayed a melting point of 58 to 60 °C.

As to `CN(C)CCOCCc1cc2ccsc2cc1F.O=C(O)C(=O)O`, the melting point lay in the range of 120 to 126 °C.

Consider `CN(CCOCCc1ccc2sccc2c1)CCOC(=O)C(C)(C)C.Cl`, for which the melting point was in the range of 118 to 119 °C.

With `CCN(CCO)CCOCCc1ccc2sccc2c1.O=C(O)C(=O)O`, the melting point fell in the range of 53 to 56 °C.

As to `CN(C)CCOCCc1ccc2sc(-c3ccccc3)cc2c1.Cl`, the melting point fell in the range of 170 to 172 °C.

The molecule `CN(C)CCOCCc1ccc2ccccc2c1.Cl` returned a melting point of 105 to 107 °C.

Molecule `CN(CCOCCc1ccc2sccc2c1)CCOC(=O)c1ccccc1.Cl` showed a melting point of 97 to 98 °C.

Regarding `CCN(CC)CCOCCc1ccc2sc(C(=O)O)cc2c1.Cl`, the melting point was 148 to 150 °C.

Consider `CCN(CC)CCOCCc1ccc2sc(C)cc2c1.O=C(O)C(=O)O`, for which the melting point was 96 to 98 °C.

`CCN(CC)CCCCCOCCc1ccc2sccc2c1.Cl` gave a melting point of 138.5 to 140 °C.

Regarding `CCN(CC)CCOCCc1c(F)ccc2ccsc12.Cl`, the melting point lay in the range of 71 to 73.5 °C.

As to `CN(CCOCCc1ccc2sccc2c1)Cc1ccc([N+](=O)[O-])cc1.O=C(O)C(=O)O`, the melting point lay within 112 to 114 °C.

Molecule `CN(C)CCOCCc1cccc2sccc12.Cl` came in with a melting point of 165 to 167 °C.

`CCN(CC)CCCOCCc1ccc2sccc2c1.O=C(O)C(=O)O` registered a melting point of 87.5 to 89 °C.

Molecule `CN(CCO)CCOCCc1ccc2sc(F)cc2c1.O=C(O)C(=O)O` yielded a melting point of 77 to 80 °C.

Consider `CCN(CC)CCOCCc1ccc2occc(=O)c2c1.Cl`, for which the melting point is 173 to 176 °C.

For the molecule `CCN(CC)CCOCCc1cccc2ccsc12.O=C(O)C(=O)O`, the melting point fell in the range of 75 to 76 °C.

Molecule `CCN(CC)CCOCCc1ccc2c(c1)CCC2.Cl` [Example 105, N-{2-[2-(2,3-Dihydro-1H-inden-5-yl)ethoxy]ethyl}-N,N-diethylamine hydrochloride] had a melting point of 104 to 105 °C.

`CCN(CC)CCOCCc1c(F)cc2ccsc2c1F.Cl` came in with a melting point of 98 to 100 °C.

`CN(C)CCOCCc1ccc2occc2c1.O=C(O)C(=O)O` showed a melting point of 101 to 103 °C.

`CN(C)CCOCCc1ccc2c(c1)OCO2.O=C(O)C(=O)O` came in with a melting point of 109 to 112 °C.

With `CN(CCCO)CCOCCc1ccc2sccc2c1.O=C(O)C(=O)O`, the melting point is 93 to 95 °C.

As for `O=C(O)C(=O)O.OCCN(CCOCCc1ccc2sccc2c1)Cc1ccccc1`, the melting point lay in the range of 104 to 105.5 °C.

On to `C#CCN(CCOCCc1ccc2sccc2c1)Cc1ccccc1.O=C(O)C(=O)O`, for which the melting point was in the range of 107 to 108 °C.

For `COc1ccc(CN(C)CCOCCc2ccc3sccc3c2)cc1.O=C(O)C(=O)O`, the melting point was in the range of 78.5 to 81 °C.

In the case of `CN(CCOCCc1cc2ccsc2cc1F)Cc1ccccc1.O=C(O)C(=O)O`, the melting point lay in the range of 96 to 98 °C.

`CN(CCOCCc1ccc2sccc2c1)Cc1ccc(F)cc1.O=C(O)C(=O)O` came in with a melting point of 149 to 150.5 °C.

`CCOC(=O)OCCN(C)CCOCCc1ccc2sccc2c1.Cl`: the melting point is 73.5 to 76 °C.

On to `CN(C)CCOCCc1cccc2ccccc12.Cl`, for which the melting point was in the range of 183 to 184 °C.

Molecule `CCN(CC)CCOCCc1ccc2ccccc2c1.O=C(O)C(=O)O` returned a melting point of 67 to 72 °C.

`CN(CCO)CCCCCOCCc1ccc2sccc2c1.O=C(O)C(=O)O` returned a melting point of 78.5 to 80.5 °C.

`CCN(CC)CCOCCc1cc2occc2cc1OC.Cl` returned a melting point of 90 to 92 °C.

For `CC(CO)N(C)CCOCCc1ccc2sccc2c1.O=C(O)C(=O)O` (centres unmarked), the melting point fell in the range of 97 to 99 °C.

Turning to `CN(C)CCOCCc1ccc2sccc2c1Cl.Cl`, the melting point was 92 to 95 °C.

Consider `CCN(CC)CCOCCc1ccc2c(c1)OCO2` [Example 25, N-{2-[2-(1,3-benzodioxol-5-yl)ethoxy]ethyl}-N,N-diethylamine], for which the melting point was in the range of 83 to 84 °C.

In turn, `CC(COCCc1ccc2sccc2c1)N(C)CCO.O=C(O)C(=O)O` (centres unmarked) displayed a melting point of 72 to 74 °C.

Molecule `CCN(CC)CCOCCc1cccc2sccc12.O=C(O)C(=O)O` returned a melting point of 79 to 82 °C.

With `CN(CCO)CCOCCc1cccc2ccsc12.Cl`, the melting point was in the range of 74 to 76 °C.

`CN(C)CCOCCc1cccc2ccsc12.Cl` had a melting point of 130 to 132 °C.

The molecule `CN(CCO)CCOCCc1cc2ccsc2cc1F.O=C(O)C(=O)O` showed a melting point of 96 to 99 °C.

Regarding `C#CCN(CC)CCOCCc1ccc2sccc2c1.Cl`, the melting point was in the range of 115 to 123 °C.

In turn, `CN(C)CCN(C)CCOCCc1ccc2sccc2c1.Cl.Cl` yielded a melting point of 228 to 230 °C.

In turn, `CCC(Cc1ccc2sccc2c1)OCCN(CC)CC.Cl` (centres unmarked) returned a melting point of 84.5 to 87 °C.

For the molecule `COc1ccc2cc(CCOCCN(C)C)ccc2c1.Cl`, the melting point lay within 125 to 128 °C.
